The test system of experiment [1] is Rattus norvegicus. As to the kind of experiment: Hypoglycemic activity in Wistar rat assessed as change in blood glucose level at 50 mg/kg, ig after 1 hr (RVb = 10.96 +/- 3.67 %). Format: functional. The following applies: route intragastric.
The subject of experiment [2] is Rattus norvegicus. As to the kind of experiment: Hypoglycemic activity in Wistar rat assessed as change in blood glucose level at 50 mg/kg, ig after 3 hrs (RVb = 1.39 +/- 5.895 %). Format: functional. The following applies: route intragastric.
For experiment [3], the system named is Rattus norvegicus. As to the kind of experiment: Hypoglycemic activity in Wistar rat assessed as change in blood glucose level at 50 mg/kg, ig after 5 hrs (RVb = 1.21+/- 3.64 %). Format: functional. The following applies: route intragastric.
Experiment [4] relates to Rattus norvegicus. As to the kind of experiment: Hypoglycemic activity in Wistar rat assessed as change in blood glucose level at 50 mg/kg, ig after 7 hrs (RVb = -3.59 +/- 2.65 %). The following applies: route intragastric. Format: functional.
Experiment [5] has as its system Rattus norvegicus. As to the kind of experiment: Antidiabetic activity in Wistar rat assessed as change in blood glucose level at 50 mg/kg, ig after 1 hr (RVb = 20.18 % +/- 8.49%). Format: functional. The following applies: route intragastric.
The subject of experiment [6] is Rattus norvegicus. As to the kind of experiment: Antidiabetic activity in Wistar rat assessed as change in blood glucose level at 50 mg/kg, ig after 3 hrs (RVb = -9.83 % +/- 5.67%). Type of experiment: functional. The following applies: route intragastric.
Experiment [7] concerns Rattus norvegicus. As to the kind of experiment: Antidiabetic activity in Wistar rat assessed as change in blood glucose level at 50 mg/kg, ig after 7 hrs (RVb = -10.51% +/- 5.53%). Format: functional. The following applies: route intragastric.
Experiment [8] has as its system Rattus norvegicus. As to the kind of experiment: Antidiabetic activity in Wistar rat assessed as change in blood glucose level at 50 mg/kg, ig after 5 hrs (RVb = -1.17% +/- 8.77%). Type of experiment: functional. The following applies: route intragastric.
The test system of experiment [9] is Rattus norvegicus. As to the kind of experiment: Antidiabetic activity in STZ-induced Wistar rat assessed as reduction in blood glucose level at 50 mg/kg, ig after 1 day relative to control. Format: functional. The arrangement: scale not given: the % may be the effect or the level left. The following applies: route intragastric.
Experiment [10] deals with Rattus norvegicus. As to the kind of experiment: Antidiabetic activity in STZ-induced Wistar rat assessed as reduction in blood glucose level at 50 mg/kg, ig after 2 day relative to control. Type of experiment: functional. More on the design: scale not given: the % may be the effect or the level left. The following applies: route intragastric.
In experiment [11] the test system is Rattus norvegicus. As to the kind of experiment: Antidiabetic activity in STZ-induced Wistar rat assessed as reduction in blood glucose level at 50 mg/kg, ig after 3 day relative to control. Type of experiment: functional. The arrangement: scale not given: the % may be the effect or the level left. The following applies: route intragastric.
The subject of experiment [12] is Rattus norvegicus. As to the kind of experiment: Antidiabetic activity in STZ-induced Wistar rat assessed as reduction in blood glucose level at 50 mg/kg, ig after 4 day relative to control. The following applies: route intragastric. The arrangement: scale not given: the % may be the effect or the level left. Type of experiment: functional.
The subject of experiment [13] is Rattus norvegicus. As to the kind of experiment: Antidiabetic activity in STZ-induced Wistar rat assessed as reduction in blood glucose level at 50 mg/kg, ig after 5 day relative to control. Format: functional. The following applies: route intragastric. More on the design: scale not given: the % may be the effect or the level left.
Experiment [14] has as its target 11-beta-hydroxysteroid dehydrogenase 1 (Homo sapiens) (UniProt P28845). As to the kind of experiment: Inhibition of human 11beta HSD1 in HEK293 cells at 10 uM. Type of experiment: cell-based.

In ChEMBL document CHEMBL1165907, “A comparative study of flavonoid analogues on streptozotocin-nicotinamide induced diabetic rats: quercetin as a potential antidiabetic agent acting via 11beta-hydroxysteroid dehydrogenase type 1 inhibition” (2010) one finds Activity and inhibition data, which are given here for seven compounds.

11-beta-hydroxysteroid dehydrogenase 1 (Homo sapiens), sequence (P28845 whole entry, looked up): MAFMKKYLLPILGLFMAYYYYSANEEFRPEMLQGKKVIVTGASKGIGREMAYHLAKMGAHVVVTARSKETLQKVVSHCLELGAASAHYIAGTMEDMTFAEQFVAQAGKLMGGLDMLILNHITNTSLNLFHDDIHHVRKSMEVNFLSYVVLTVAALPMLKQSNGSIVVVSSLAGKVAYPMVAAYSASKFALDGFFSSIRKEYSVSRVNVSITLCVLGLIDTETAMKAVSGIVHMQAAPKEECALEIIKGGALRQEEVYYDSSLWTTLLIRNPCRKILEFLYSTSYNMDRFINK

For the compound `O=c1cc(-c2ccccc2)oc2ccc(O)cc12` [6-HYDROXYFLAVONE], the Activity in the experiment on Rattus norvegicus [1] is on record as -16.21%; in the experiment with Rattus norvegicus [2], 6.51%; in the experiment with Rattus norvegicus [3], 6.41%; in the experiment on Rattus norvegicus [4], -0.93%; with Rattus norvegicus [5], -13.08%; in the experiment on Rattus norvegicus [6] it was -11.07%. The Activity in the experiment on Rattus norvegicus [7] is -25.42%; in the experiment on Rattus norvegicus [8], -19.81%; in the experiment on Rattus norvegicus [9], 16.9%; in the experiment on Rattus norvegicus [10], 6.6%; in the experiment with Rattus norvegicus [11], 13.15%; in the experiment with Rattus norvegicus [12], 2.53%. For the same compound, in the experiment on Rattus norvegicus [13], the Activity is given as 34.7%.
With `O=c1cc(-c2ccccc2)oc2cc(O)ccc12` [7-HYDROXYFLAVONE], the Activity is 5.05% in the experiment on Rattus norvegicus [1]; -6.19% with Rattus norvegicus [2]; 7.39% with Rattus norvegicus [3]; -4.81% in the experiment with Rattus norvegicus [4]; -12.79% in the experiment with Rattus norvegicus [5]; -12.69% in the experiment with Rattus norvegicus [6]. For the same compound, the Activity in the experiment on Rattus norvegicus [7] is -12.18%; in the experiment with Rattus norvegicus [8], -10.03%; with Rattus norvegicus [9], 8.8%; in the experiment with Rattus norvegicus [10], 35.5%; with Rattus norvegicus [11], 36%; in the experiment on Rattus norvegicus [12], 20.4%. For the same compound, the Activity in the experiment with Rattus norvegicus [13] turned out to be 38.5%.
Turning to `O=c1cc(-c2ccccc2)oc2cc(O)cc(O)c12` [CHRYSIN], the Activity with Rattus norvegicus [1] is -9.27%; in the experiment on Rattus norvegicus [2] it was -19.98%; with Rattus norvegicus [3], -17.08%; with Rattus norvegicus [4] it was -9.42%; with Rattus norvegicus [5] it was -1.7%; in the experiment on Rattus norvegicus [6], -9.96%. Moreover, the Activity was -35.5% in the experiment on Rattus norvegicus [7]; -10.41% in the experiment on Rattus norvegicus [8]; 7.07% in the experiment with Rattus norvegicus [9]; 19.6% with Rattus norvegicus [10]; 5.2% in the experiment with Rattus norvegicus [11]; 0.5% with Rattus norvegicus [12]. Also, the Activity with Rattus norvegicus [13] was found to be 17.17%.
In the case of `O=c1cc(-c2ccccc2)oc2ccccc12` [FLAVONE], the Activity is recorded as -16.16% with Rattus norvegicus [1]; -21.56% in the experiment with Rattus norvegicus [2]; -24.7% with Rattus norvegicus [3]; -11.65% in the experiment with Rattus norvegicus [4]; 13.53% with Rattus norvegicus [5]; -10.02% in the experiment with Rattus norvegicus [6]. For the same compound, the Activity in the experiment on Rattus norvegicus [7] was -39.69%; in the experiment on Rattus norvegicus [8], -21.41%; with Rattus norvegicus [9], 0.05%; in the experiment with Rattus norvegicus [10] it was 32.76%; in the experiment with Rattus norvegicus [11], 19.5%; in the experiment with Rattus norvegicus [12], 10.6%. The Activity with Rattus norvegicus [13] is given as 10.8%. In [14], this compound had an inhibition of 16%.
As to `O=c1c(O)c(-c2ccccc2)oc2ccccc12` [FLAVONOL], the Activity in the experiment on Rattus norvegicus [1] is given as -6.04%; in the experiment on Rattus norvegicus [2] it was -20.2%; with Rattus norvegicus [3], -2.36%; in the experiment on Rattus norvegicus [4], -10.05%; with Rattus norvegicus [5] it was 1.93%; in the experiment on Rattus norvegicus [6], -5.92%. The Activity with Rattus norvegicus [7] is listed as -16.04%; in the experiment with Rattus norvegicus [8] it was -15.66%; in the experiment on Rattus norvegicus [9], 2.09%; with Rattus norvegicus [10], 7.7%; in the experiment on Rattus norvegicus [11], 35.7%; with Rattus norvegicus [12], 60.1%. Besides, the Activity in the experiment on Rattus norvegicus [13] is 9.2%.
For `COc1ccc(Cl)cc1C(=O)NCCc1ccc(S(=O)(=O)NC(=O)NC2CCCCC2)cc1` [GLYBURIDE], the Activity is on record as -8.29% in the experiment with Rattus norvegicus [1]; -21.71% in the experiment with Rattus norvegicus [2]; -24.78% in the experiment with Rattus norvegicus [3]; -23.77% in the experiment with Rattus norvegicus [4]; -21.93% in the experiment with Rattus norvegicus [5]; -24.93% in the experiment with Rattus norvegicus [6]. The Activity in the experiment on Rattus norvegicus [7] was -42.52%; in the experiment on Rattus norvegicus [8], -43.88%; in the experiment on Rattus norvegicus [9] it was 33.2%; with Rattus norvegicus [10], 32.2%; in the experiment with Rattus norvegicus [11] it was 38.5%; in the experiment with Rattus norvegicus [12], 50%. Also, the Activity with Rattus norvegicus [13] was determined as 40%.
`O=c1c(O)c(-c2ccc(O)c(O)c2)oc2cc(O)cc(O)c12` [QUERCETIN]: the Activity was -16.19% with Rattus norvegicus [1]; -21.1% with Rattus norvegicus [2]; -10.74% in the experiment with Rattus norvegicus [3]; -17.85% in the experiment on Rattus norvegicus [4]; -2.37% in the experiment with Rattus norvegicus [5]; -17.28% with Rattus norvegicus [6]. Also, the Activity is reported as -42.62% with Rattus norvegicus [7]; -52.68% in the experiment with Rattus norvegicus [8]; 10.8% with Rattus norvegicus [9]; 13.3% in the experiment with Rattus norvegicus [10]; 27% with Rattus norvegicus [11]; 21.3% in the experiment with Rattus norvegicus [12]. Moreover, the Activity in the experiment with Rattus norvegicus [13] stood at 3.7%. Also, in experiment [14], the inhibition turned out to be 27%.

Usually inhibition stands for the change of the read-out against control, counted positive when it falls.
